The results in this text go back to ChEMBL document CHEMBL3507680, “University of Dundee, Gates Library screen for HepG2 cell viability”.

Each structure is given as a SMILES string.

The nature of this data set: Human HepG2 cell viability assay in 384 well format. Also on record: dose 125 nL, time 70.5 hour; cytotoxicity at 70.5 h: concentration not given beside the values. The conditions noted are these: HepG2 cells, read-out: Inhibition. It is filed as toxicity, cell-based.
For `O=C1N(Cc2ccc(F)c(F)c2)CCCC1(O)CNCC1CCCCC1` (stereo not drawn), the cytotoxicity at 70.5 h is 18.7%.

With `CCN1CCC(Cn2ccc3c(OC)c(OC)ccc3c2=O)C1` (stereo not drawn), the cytotoxicity at 70.5 h was -2.32%.

For the compound `COc1ccc2c(c1)OCC(Cc1cncc(N)c1)C2` (stereo not drawn), the cytotoxicity at 70.5 h turned out to be 8.44%. The same measure for `Cc1[nH]c2c(F)cccc2c1CC(=O)NCc1csc(N(C)C)n1`: 39.7%; for `O=C(O)c1ccnc(-c2ccnc(N3CCC(F)(F)CC3)n2)c1`: 21%.

On to `O=C1NCCN2CCN(C(=O)Nc3ccc(-c4ccccc4)cc3)CC12` (stereo not drawn), for which the cytotoxicity at 70.5 h came to 10.4%. Regarding `O=C(CC1CCCCC1)N1C[C@H]2CC[C@@H]1CN(Cc1cccnc1)C2`, the cytotoxicity at 70.5 h is -13.3%. Turning to `CNC(=O)[C@@H]1C[C@@H](NC(=O)c2cn(C)nc2C)CN1Cc1sccc1C`, the cytotoxicity at 70.5 h was -2.42%. The same measure for `CCn1c(N)nc2cc(C(=O)NCc3cccc(C)c3C)cnc21`: 17.1%.

In the case of `CC(=O)c1cc(CC(=O)N2CCN(CCOc3ccccc3)CC2)cs1`, the cytotoxicity at 70.5 h is -1.31%. `CCCN1CCCC2(CCN(S(=O)(=O)N3CCC(OC)CC3)C2)C1=O` (stereo not drawn): the cytotoxicity at 70.5 h was -1.84%.

`CN(Cc1ccco1)c1ccc(C(=O)NCCCc2ccccn2)cn1`: the cytotoxicity at 70.5 h amounted to 0.076%. `Fc1ccccc1CN1CCCN(c2ncnc3[nH]ccc23)CC1`: the cytotoxicity at 70.5 h was -24%. With `CCCn1ccnc1CN1C[C@@H](CN2CCCN(C)CC2)[C@@H](CO)C1`, the cytotoxicity at 70.5 h is -9.5%. Under `CC(C)N1CCC2(CC1)CC(=O)N(Cc1cc(F)cc(F)c1)C2` stands -2.98%. As for `CC(C)c1cc(NCC(O)c2ccccn2)n2nccc2n1` (stereo not drawn), the cytotoxicity at 70.5 h was -8.96%.

`Cc1sc2ncnc(N3CCC(N(C)Cc4cnn(C)c4)CC3)c2c1C`: the cytotoxicity at 70.5 h turned out to be 0.374%. The same measure for `Cc1nsc(NC(=O)NC2(CN3CCOCC3)CCCC2)n1`: -8.03%; for `CCc1ccc(CN(CCN(C)C)Cc2ccc(C)s2)nc1`: -5.3%; for `O=C1CC(NCc2ncc[nH]2)CN1CCc1cccc(Cl)c1` (stereo not drawn): -8.16%.

`CCCn1ncc(C(=O)NC2CCN(C3CCOCC3)CC2)c1C`: the cytotoxicity at 70.5 h is -2.11%.

With `O=C(c1cc2c(s1)CCCCC2)N1CCC(c2ncc[nH]2)CC1`, the cytotoxicity at 70.5 h amounted to 1.98%. The same measure for `Cc1nc[nH]c1CN(C)Cc1cnn(-c2ccc(F)cc2)c1`: 28.9%; for `O=C(O)[C@@H]1CN(C(=O)CCN2CCCCC2)C[C@H]1c1ccccc1`: -5.31%; for `Cc1ncc(CC(=O)N2CCCC(COc3ccc(F)cc3)C2)c(=O)[nH]1` (stereo not drawn): 2.89%. Under `CC(C)[C@H](NC(=O)c1cccc(CCC(C)(C)O)c1)C(N)=O` stands -2.04%.

On to `CCS(=O)(=O)N1CCC(c2nnc(CN3CCCCCC3)n2C)CC1`, for which the cytotoxicity at 70.5 h is -3.73%.

Regarding `c1cc(-c2ccc(CN3CCCC4(CCNC4)C3)s2)[nH]n1` (stereo not drawn), the cytotoxicity at 70.5 h amounted to 1.71%. The same measure for `CCc1nn(C)c(Cl)c1CN1CCC2(C1)CN(C)C(=O)O2` (stereo not drawn): -17.2%; for `Cc1ccc(N2CCN(C(=O)C(O)c3cccc(Cl)c3)CC2=O)cc1` (stereo not drawn): -5.15%. The same measure for `O=C1NCC(CN2CCc3onc(-c4ccc(C(F)(F)F)cc4)c3C2)O1` (stereo not drawn): -17.3%; for `Cc1ccc(CCNc2nccc(-c3cc(C(=O)O)ccn3)n2)o1`: -6.22%; for `CC(C)(C(=O)NCC1CCN(Cc2cccnc2)C1)c1ccccc1` (stereo not drawn): -4.33%. For `O=C(NC1CCNCC1)C1(N2CCCCC2)Cc2ccccc2C1`, the cytotoxicity at 70.5 h came to 13.5%. The same measure for `CCNC(=O)C1CCN(c2nccc(C3CCCC3)n2)C1` (stereo not drawn): -17.7%; for `Cc1ccc(NC2CCCN(CCCc3ccccc3)C2)nn1` (stereo not drawn): 30.2%. The same measure for `CCSCCn1c(=O)n(Cc2ccc(F)cc2)c2ncc(C(=O)O)cc21`: -4.52%; for `CCc1ccc(CN2CCN(c3ccc(C(N)=O)cn3)CC2)nc1`: 2.82%.
